“And” between values parts separate entries of the source, which are not always exact repeats. Equal values may be shown once. Toxic doses and inconclusive results are not listed. How the source made its calls: active means survival T/C of 150% or more; inactive means T/C below 125% in these data.
Tested on: P388 leukemia ip, CD2F1 mice, survival T/C
Assay: NCI In Vivo Anticancer Drug Screen. Data for tumor model P388 Leukemia (intraperitoneal) in CD2F1 (CDF1) mice
Conditions: endpoint: median survival time, higher = longer survival
How it was run: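 Mice carrying the transplanted tumor received test compound or vehicle. Survival was recorded in each group, and the value is the treated-group measurement divided by that of the vehicle-treated control group.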

[1] = dose: 12.5 mg/kg/injection, schedule: Q01DX005 (ip), vehicle: Klucel (hydroxypropylcellulose) (HPC)
[2] = dose: 12.5 mg/kg/injection, schedule: Q01DX009 (ip), vehicle: Klucel (hydroxypropylcellulose) (HPC)
[3] = dose: 25.0 mg/kg/injection, schedule: Q01DX009 (ip), vehicle: Klucel (hydroxypropylcellulose) (HPC)
[4] = dose: 60.0 mg/kg/injection, schedule: Q01DX005 (ip), vehicle: saline with Tween-80
[5] = dose: 120.0 mg/kg/injection, schedule: Q01DX005 (ip), vehicle: saline with Tween-80
[6] = dose: 240.0 mg/kg/injection, schedule: Q01DX005 (ip), vehicle: saline with Tween-80
[7] = dose: 30.0 mg/kg/injection, schedule: Q01DX005 (ip), vehicle: saline with Tween-80
[8] = dose: 100.0 mg/kg/injection, schedule: Q01DX001 (ip), vehicle: saline with Tween-80
[9] = dose: 200.0 mg/kg/injection, schedule: Q01DX001 (ip), vehicle: saline with Tween-80
[10] = dose: 400.0 mg/kg/injection, schedule: Q01DX001 (ip), vehicle: saline with Tween-80
[11] = dose: 50.0 mg/kg/injection, schedule: Q01DX005 (ip), vehicle: Klucel (hydroxypropylcellulose) (HPC)

Measured: T/C

O=[N+]([O-])c1ccc(Sc2ncccn2)cc1
inactive: dose: 25.0 mg/kg/injection, schedule: Q04DX002 (ip), vehicle: suspension in saline 108 % of control | dose: 50.0 mg/kg/injection, schedule: Q04DX002 (ip), vehicle: suspension in saline 94 % of control | dose: 100.0 mg/kg/injection, schedule: Q04DX002 (ip), vehicle: suspension in saline 101 % of control | dose: 200.0 mg/kg/injection, schedule: Q04DX002 (ip), vehicle: suspension in saline 100 % of control | dose: 400.0 mg/kg/injection, schedule: Q04DX002 (ip), vehicle: suspension in saline 96 % of control

CCOC(=O)/C(=C(\C)N)C1CC(=O)NC1=O (stereo not drawn)
inactive: dose: 25.0 mg/kg/injection, schedule: Q01DX009 (ip), vehicle: saline 104 % of control | dose: 50.0 mg/kg/injection, schedule: Q01DX009 (ip), vehicle: saline 104 % of control | dose: 100.0 mg/kg/injection, schedule: Q01DX009 (ip), vehicle: saline 101 % of control | dose: 200.0 mg/kg/injection, schedule: Q01DX009 (ip), vehicle: saline 107 % of control

CCc1cccc(CC)c1-n1nnc(C(=O)c2ccccc2)c1C(=O)OC
inactive: dose: 60.0 mg/kg/injection, schedule: Q01DX005 (ip), vehicle: Klucel + Tween-80 100 % of control | dose: 120.0 mg/kg/injection, schedule: Q01DX005 (ip), vehicle: Klucel + Tween-80 109 % of control | dose: 240.0 mg/kg/injection, schedule: Q01DX005 (ip), vehicle: Klucel + Tween-80 102 % of control

NCCCCCCCC(=O)NCCCCCCCC(=O)NCCCCCCCC(=O)NCCCCCCCC(=O)NN
inactive: dose: 50.0 mg/kg/injection, schedule: Q01DX005 (ip), vehicle: saline with Tween-80 100 % of control | dose: 100.0 mg/kg/injection, schedule: Q01DX005 (ip), vehicle: saline with Tween-80 100 % of control | dose: 200.0 mg/kg/injection, schedule: Q01DX005 (ip), vehicle: saline with Tween-80 91 % of control

[Cl][Sn]([c]1cccc2ccccc12)[c]1cccc2ccccc12
inactive: dose: 1.56 mg/kg/injection, schedule: Q01DX005 (ip), vehicle: Klucel (hydroxypropylcellulose) (HPC) 101 % of control | dose: 3.12 mg/kg/injection, schedule: Q01DX005 (ip), vehicle: Klucel (hydroxypropylcellulose) (HPC) 120 % of control | dose: 6.25 mg/kg/injection, schedule: Q01DX005 (ip), vehicle: Klucel (hydroxypropylcellulose) (HPC) 124 % of control | [1] 109 % of control

O=C(/C=C/c1ccccc1)c1ccccc1
inactive: [2] 100 % of control | [3] 105 % of control | dose: 50.0 mg/kg/injection, schedule: Q01DX009 (ip), vehicle: Klucel (hydroxypropylcellulose) (HPC) 100 % of control | dose: 100.0 mg/kg/injection, schedule: Q01DX009 (ip), vehicle: Klucel (hydroxypropylcellulose) (HPC) 108 % of control

CNc1nc2c(C)ccc3[nH]c(NC)nc3c-2n1
inactive: dose: 8.0 mg/kg/injection, schedule: Q01DX005 (ip), vehicle: Klucel (hydroxypropylcellulose) (HPC) 95 % of control | dose: 16.0 mg/kg/injection, schedule: Q01DX005 (ip), vehicle: Klucel (hydroxypropylcellulose) (HPC) 100 % of control | dose: 32.0 mg/kg/injection, schedule: Q01DX005 (ip), vehicle: Klucel (hydroxypropylcellulose) (HPC) 90 % of control | dose: 64.0 mg/kg/injection, schedule: Q01DX005 (ip), vehicle: Klucel (hydroxypropylcellulose) (HPC) 88 % of control

Cc1cccc(C(=O)O)n1
inactive: dose: 100.0 mg/kg/injection, schedule: Q04DX003 (ip), vehicle: saline 104 % of control | dose: 200.0 mg/kg/injection, schedule: Q04DX003 (ip), vehicle: saline 100 % of control | dose: 400.0 mg/kg/injection, schedule: Q04DX003 (ip), vehicle: saline 109 % of control

COc1ccc2c(c1)CN(C)c1ccc(OC)cc1CN2C
inactive: [4] 100 % of control | [5] 104 % of control | [6] 100 % of control

CC(O)(CCO)CCO
inactive: dose: 25.0 mg/kg/injection, schedule: Q01DX005 (ip), vehicle: water 98 % of control | dose: 50.0 mg/kg/injection, schedule: Q01DX005 (ip), vehicle: water 100 % of control | dose: 100.0 mg/kg/injection, schedule: Q01DX005 (ip), vehicle: water 98 % of control | dose: 200.0 mg/kg/injection, schedule: Q01DX005 (ip), vehicle: water 99 % of control | dose: 400.0 mg/kg/injection, schedule: Q01DX005 (ip), vehicle: water 99 % of control

O=C(Nc1cc(-c2ccccc2)[nH]n1)c1ccccc1F
inactive: [7] 97 % of control | [4] 97 % of control | [5] 97 % of control | [6] 90 % of control

CCOc1ccc(/C=N/NC(=S)NC23CC4CC(CC(C4)C2)C3)cc1OCC
inactive: [7] 108 % of control | [4] 102 % of control and 86 % of control | [5] 90 % of control

c1ccc(-c2nc(-c3ccccn3)cc3ccccc23)cc1
inactive: [8] 91 % of control | [9] 92 % of control | [10] 112 % of control

CCCCCN(CCCCC)C(C)C(=O)c1ccc(Cl)cc1 (stereo not drawn)
inactive: [11] 100 % of control | dose: 100.0 mg/kg/injection, schedule: Q01DX005 (ip), vehicle: Klucel (hydroxypropylcellulose) (HPC) 100 % of control | dose: 200.0 mg/kg/injection, schedule: Q01DX005 (ip), vehicle: Klucel (hydroxypropylcellulose) (HPC) 100 % of control

CC(NNC(=S)N1CCCCCC1)c1ccccn1 (stereo not drawn)
inactive: [1] 103 % of control | dose: 25.0 mg/kg/injection, schedule: Q01DX005 (ip), vehicle: Klucel (hydroxypropylcellulose) (HPC) 106 % of control | [11] 112 % of control and 113 % of control

CC(=O)OC1SC(C)(C)n2c1nc1ccccc1c2=O (stereo not drawn)
inactive: [8] 100 % of control | [9] 104 % of control | [10] 98 % of control

COc1ccc(CCNCCc2ccc(OC)c(OC)c2)cc1OC
inactive: dose: 6.25 mg/kg/injection, schedule: Q01DX009 (ip), vehicle: water 96 % of control | dose: 12.5 mg/kg/injection, schedule: Q01DX009 (ip), vehicle: water 108 % of control | dose: 25.0 mg/kg/injection, schedule: Q01DX009 (ip), vehicle: water 100 % of control | dose: 50.0 mg/kg/injection, schedule: Q01DX009 (ip), vehicle: water 100 % of control | dose: 100.0 mg/kg/injection, schedule: Q01DX009 (ip), vehicle: water 90 % of control

CC(C)C/C=N/N(C)C=O
inactive: dose: 100.0 mg/kg/injection, schedule: Q04DX002 (ip), vehicle: saline 100 % of control | dose: 200.0 mg/kg/injection, schedule: Q04DX002 (ip), vehicle: saline 100 % of control | dose: 400.0 mg/kg/injection, schedule: Q04DX002 (ip), vehicle: saline 103 % of control

CCn1cc(C(=O)O)c(=O)c2nc(S(C)=O)sc21 (stereo not drawn)
inactive: dose: 15.0 mg/kg/injection, schedule: Q01DX005 (ip), vehicle: saline with Tween-80 103 % of control | [7] 108 % of control | [4] 123 % of control and 97 % of control

COC(=O)C(=O)c1c(-c2ccc(Cl)c(Cl)c2)[nH]c2[nH]n(-c3ccccc3)c(=O)c2c1=O
inactive: [4] 94 % of control | [5] 88 % of control | [6] 88 % of control

C=C1C(=O)OC2/C=C(\C)CC/C=C(/C=O)C(OC)C(OC(=O)C(C)C)C12 (stereo not drawn)
inactive: dose: 6.25 mg/kg/injection, schedule: Q01DX009 (ip), vehicle: Klucel (hydroxypropylcellulose) (HPC) 106 % of control | [2] 97 % of control | [3] 100 % of control

CN(C)c1ccc(/C=N/NC(=O)C(O)(c2ccccc2)c2ccccc2)cc1
inactive: [4] 102 % of control | [5] 102 % of control | [6] 96 % of control

CS(=O)(=O)OC1C(O)C(n2cnc3c(N)ncnc32)C(O)C(OS(C)(=O)=O)C1OS(C)(=O)=O (stereo not drawn)
inactive: [4] 98 % of control | [5] 95 % of control | [6] 96 % of control

C=C1C[C@H](O)[C@H]2C(C[Se]c3ccccc3)C(=O)O[C@@H]2[C@H]2[C@H](C)C(O)C[C@@H]12 (stereo partly drawn)
inactive: [4] 91 % of control | [5] 95 % of control | [6] 98 % of control

O=[N+]([O-])c1cc2[nH]cnc2c([N+](=O)[O-])c1NCc1ccccc1
inactive: dose: 100.0 mg/kg/injection, schedule: Q04DX002 (ip), vehicle: saline with Tween-80 98 % of control | dose: 200.0 mg/kg/injection, schedule: Q04DX002 (ip), vehicle: saline with Tween-80 97 % of control

O=c1c(Cc2c[nH]c3ccccc23)coc2ccccc12
inactive: [4] 100 % of control | [5] 90 % of control | [6] 89 % of control
